Experimental findings from PubChem BioAssay (NCI) are described below.

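In this assay, cells in 96-well plates receive the compound at five concentrations for 48 hours. Endpoints are linearly interpolated between the surrounding concentrations. GI50 is the concentration that inhibits growth by half. TGI denotes the concentration required for complete inhibition of growth.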

Among the test systems are EKVX NSCLC; SNB-19 CNS; A549 NSCLC; HS 578T breast; SW-620 colon; CAKI-1 renal; KM12 colon; MDA-N; ACHN renal.
Test in all cases: growth of human tumour cells (NCI), 48 h

As for `C1CC[N-]CC1.CC(=N\O)/C(C)=N/O.CC(=N\O)/C(C)=N/O.[CH2-]CCN1CCOCC1.[Co+2]`, the GI50 with EKVX NSCLC, in the assay with SNB-19 CNS, in the assay with A549 NSCLC, in the assay with HS 578T breast, in the assay with SW-620 colon and in the assay with CAKI-1 renal was greater than 100 µM in each case. Besides, the GI50 with KM12 colon, in the assay on MDA-N and in the assay on ACHN renal was greater than 100 µM each time. Moreover, the TGI with EKVX NSCLC, in the assay on SNB-19 CNS, in the assay with A549 NSCLC, in the assay on HS 578T breast, with SW-620 colon and in the assay with CAKI-1 renal was greater than 100 µM in each case. For the same compound, the TGI in the assay on KM12 colon, with MDA-N and in the assay on ACHN renal was greater than 100 µM throughout.
Turning to `COc1ccc(NC(=O)/C=C(C)/C=C/C=C(C)\C=C\C2=C(C)CCCC2(C)C)cc1`, the GI50 in the assay on EKVX NSCLC was 79 µM; with SNB-19 CNS it was greater than 100 µM; with A549 NSCLC it was 87.9 µM; in the assay with HS 578T breast, 9.02 µM; in the assay with SW-620 colon, 51.6 µM; with KM12 colon, 62.8 µM. The GI50 is 55.3 µM in the assay with MDA-N and greater than 100 µM with ACHN renal. In addition, the TGI is greater than 100 µM in the assay on EKVX NSCLC; greater than 100 µM in the assay with SNB-19 CNS; greater than 100 µM with A549 NSCLC; 96.7 µM in the assay with HS 578T breast; greater than 100 µM in the assay with SW-620 colon; greater than 100 µM with KM12 colon. Besides, the TGI in the assay with MDA-N and with ACHN renal was greater than 100 µM in each case.
With `O=C1c2ccccc2-c2c1c1ccccc1c(=O)n2-c1ccccc1`, the TGI with EKVX NSCLC was greater than 100 µM; in the assay with SNB-19 CNS, 20.4 µM; in the assay on A549 NSCLC, greater than 100 µM; in the assay with HS 578T breast, greater than 87.4 µM; in the assay on SW-620 colon it was greater than 100 µM; in the assay on CAKI-1 renal it was 34.7 µM. Moreover, the TGI was greater than 100 µM in the assay on KM12 colon, greater than 100 µM with MDA-N and 17.1 µM with ACHN renal.
Regarding `COc1cc([C@@H]2c3cc4c(cc3C[C@H]3COC(=O)[C@@H]32)OCO4)cc2c1OCO2`, the TGI with EKVX NSCLC is greater than 100 µM; in the assay on A549 NSCLC, greater than 100 µM; in the assay with SW-620 colon, greater than 100 µM; with KM12 colon, 3.2 µM; in the assay with MDA-N, less than 0.01 µM; in the assay with ACHN renal, greater than 100 µM.
For `O=C(c1ccccc1)C1C(C(=O)c2ccccc2)C(c2ccccc2)N(c2ccccc2)C1c1ccccc1` (configuration not stated), the TGI in the assay with EKVX NSCLC, with SNB-19 CNS, with A549 NSCLC, in the assay with HS 578T breast, in the assay on SW-620 colon and with CAKI-1 renal was greater than 100 µM throughout. Besides, the TGI in the assay with MDA-N and in the assay with ACHN renal was greater than 100 µM each time.
`C[N+](C)([O-])CCCNc1ccnc2cccc([N+](=O)[O-])c12`: the TGI in the assay with EKVX NSCLC was greater than 100 µM; with SNB-19 CNS, greater than 100 µM; in the assay on A549 NSCLC it was greater than 100 µM; in the assay on HS 578T breast it was 77.6 µM; in the assay on SW-620 colon it was greater than 100 µM; in the assay with CAKI-1 renal, greater than 100 µM. Besides, the TGI in the assay on KM12 colon, with MDA-N and in the assay with ACHN renal was greater than 100 µM in each case.
For the compound `O=C(Nc1cccc(C(F)(F)F)c1)c1cc(Br)cc(Br)c1O`, the TGI in the assay with EKVX NSCLC was 8.06 µM; in the assay with SNB-19 CNS, greater than 10 µM; with A549 NSCLC, 9.56 µM; in the assay with HS 578T breast, greater than 10 µM; with SW-620 colon it was greater than 10 µM; in the assay with CAKI-1 renal, 6.6 µM. The values for the TGI in the assay with KM12 colon, in the assay on MDA-N and in the assay on ACHN renal were greater than 10 µM, greater than 10 µM and 9.29 µM, respectively.
As for `Oc1ccc(Cl)cc1-c1cc(-c2ccc(F)cc2)n[nH]1`, the GI50 is 1.4 µM in the assay with EKVX NSCLC; 2.27 µM in the assay with SNB-19 CNS; 2.11 µM with A549 NSCLC; 1.71 µM in the assay with HS 578T breast; 2.64 µM in the assay on SW-620 colon; 1.77 µM in the assay on CAKI-1 renal. Besides, the GI50 in the assay on KM12 colon is 1.01 µM; with ACHN renal, 2.34 µM. For the same compound, the TGI in the assay on EKVX NSCLC turned out to be 14 µM; in the assay with SNB-19 CNS, 8.27 µM; with A549 NSCLC, 7.2 µM; with HS 578T breast, 6.65 µM; in the assay on SW-620 colon it was 10.5 µM; in the assay on CAKI-1 renal, 9.14 µM. Further, the TGI with KM12 colon was determined as 2.54 µM; in the assay with ACHN renal, 7.2 µM.
With `O=C1c2ccn(CCCCN3CCC(O)CC3)c2C(=O)c2c1c(O)c1ccccc1c2O`, the GI50 in the assay on EKVX NSCLC was 14.5 µM; in the assay on SNB-19 CNS it was greater than 52.2 µM; in the assay with A549 NSCLC, 26.2 µM; with HS 578T breast it was 29.2 µM; in the assay on SW-620 colon it was 4.48 µM; in the assay with CAKI-1 renal, 13.9 µM. Besides, the values for the GI50 in the assay on KM12 colon and with ACHN renal were 1.96 µM and 15.2 µM, respectively. Moreover, the TGI with EKVX NSCLC is 46.5 µM; in the assay on SNB-19 CNS, greater than 86.9 µM; with A549 NSCLC, 68.9 µM; with HS 578T breast, greater than 83.8 µM; in the assay with SW-620 colon it was greater than 100 µM; in the assay with CAKI-1 renal, 43.7 µM. Further, the TGI was found to be 5.2 µM in the assay on KM12 colon and 32.8 µM in the assay on ACHN renal.
Regarding `Cc1cc(O)cc2c1c(=O)c1ccccc1n2C`, the TGI in the assay with EKVX NSCLC, in the assay on SNB-19 CNS, in the assay on A549 NSCLC, with HS 578T breast, in the assay on SW-620 colon and in the assay with CAKI-1 renal was greater than 100 µM throughout. For the same compound, the TGI with KM12 colon, with MDA-N and with ACHN renal was greater than 100 µM in each case.
On to `CC1(C)[C@@H](OC(N)=O)C=C[C@]2(C=O)[C@H]3CC[C@]4(C)[C@@H](c5ccc(=O)oc5)[C@@H](Cl)C[C@]4(O)C3=CC[C@@H]12`, for which the GI50 in the assay on EKVX NSCLC was 0.00415 µM; with SNB-19 CNS it was 0.00782 µM; in the assay with A549 NSCLC, 0.00361 µM; in the assay with HS 578T breast, less than 0.0025 µM; with SW-620 colon, 0.00561 µM; in the assay on CAKI-1 renal it was 0.00446 µM. Besides, the GI50 is 0.00743 µM in the assay on KM12 colon and less than 0.0025 µM in the assay on ACHN renal. Besides, the TGI turned out to be 0.0102 µM in the assay with EKVX NSCLC; 0.0253 µM in the assay with SNB-19 CNS; 0.00752 µM in the assay on A549 NSCLC; 0.0146 µM with HS 578T breast; 0.013 µM in the assay with SW-620 colon; 0.00846 µM in the assay with CAKI-1 renal. Moreover, the values for the TGI in the assay on KM12 colon and with ACHN renal were 0.0238 µM and 0.00649 µM, respectively.
